Assay results as given in patent US8293895B2, “Carbapenem derivatives” (KBP Biosciences Co., Ltd., priority 2007, dated 2012).
In brackets after ≈: the same amount, converted by molar mass.

Key:
klebsiella pneumonia = experiment: In vitro antimicrobial activity, agar dilution method; type: cell-based; conditions: Klebsiella pneumoniae, klebsiella pneumonia clinical isolates
Excerpt: (§1) Bacterial strains for test: All the bacterial strains are obtained from clinic/hospital and purchased from public organizations. (1) Gram-positive bacteria: methicillin-sensitive Staphylococcus aureus (MSSA), methicillin-resistant Staphylococcus aureus (MRSA), methicillin-resistant Staphylococcus epidermidis (MRSE), methicillin-sensitive Staphylococcus epidermidis (MSSE), penicillin-sensitive Streptococcus pneumoniae (PSSP), penicillin-resistant Streptococcus pneumoniae (PRSP); (2) Gram-negative bacteria: Escherichia coli (products from ESBLs), Klebsiella pneumonia, Pseudomonas aeruginosa. Drugs to be tested: Compound A-E, self-made as described above; Control drugs: Meropenem (Meropenem for injection), Ertapenem (Ertapenem for injection), commercially available. Experimental Method: the agar dilution method, by reference to Methodology of Pharmacological Experiment (XU Shuyun et al, published by the Peoples Medical Publishing House, 1st Edition, August, 1982; 3rd Edition, 5th printing, January 2002, p 1659-1660).

[1] = test system: methicillin-resistant Staphylococcus aureus (MRSA); experiment: as above; type: cell-based; conditions: MRSA clinical isolates
Excerpt: as §1

[2] = test system: methicillin-resistant Staphylococcus epidermidis (MRSE); experiment: as above; type: cell-based; conditions: MRSE clinical isolates
Excerpt: as §1

[3] = test system: methicillin-sensitive Staphylococcus aureus (MSSA); experiment: as above; type: cell-based; conditions: MSSA clinical isolates
Excerpt: as §1

[4] = test system: methicillin-sensitive Staphylococcus epidermidis (MSSE); experiment: as above; type: cell-based; conditions: MSSE clinical isolates
Excerpt: as §1

[5] = test system: penicillin-resistant Streptococcus pneumoniae (PRSP); experiment: as above; type: cell-based; conditions: PRSP clinical isolates
Excerpt: as §1

[6] = test system: penicillin-sensitive Streptococcus pneumoniae (PSSP); experiment: as above; type: cell-based; conditions: PSSP clinical isolates
Excerpt: as §1

pseudomonas aeruginosa = experiment: as above; type: cell-based; conditions: pseudomonas aeruginosa clinical isolates
Excerpt: as §1

proteus mirabilis = experiment: as above; type: cell-based; conditions: proteus mirabilis clinical isolates
serratia marcescens = experiment: as above; type: cell-based; conditions: serratia marcescens clinical isolates
[7] = In vivo pharmacokinetics of SD rat
Method: Drugs to be Tested and Preparation Thereof
Drugs to be tested: partial compounds of the present invention, self-synthesized as described above.
Control drugs: Ertapenem (Ertapenem for Injection), commercially available.
Internal standard substance: Warfarin, white powder, purity: 99%, batchnumber: 0072-8501, provided by Shanghai Institute for Drug Control.
Drug formulation: being dissolved in physiological saline to make the final concentration to be 5 mg/mL for intravenous injection and formulated before administration.
Test animal: SD male rats, weight: 200˜250 g, purchased from SHANGHAI SLAC LABORATORY ANIMAL CO. LTD.
Administration of the drugs to be tested: The SD male rats were randomly divided into five groups, 3 in each group, administrated by intravenous injection in an amount of 10 mg/kg; and weighted before administration.
Collection of Samples: Zero time was marked before administration; 0.5 mL of blood was respectively sampled from orbit venous plexus at 5 min, 15 min, 30 min, 45 min, 1 h, 2 h, 4 h, 6 h, 8 h, 24 h after administration into heparinized centrifuge tubes. The samples were centrifuged for 6 minutes at 8000 rpm and the supernatant plasma was separated. The plasma was freezed at −20° C. for LC-MS/MS analysis. Establishing liquid chromatography-mass spectrometry (LC-MS) methodology: Chromatographic conditions: chromatographic column. Gemini C6-Phenyl (50 mm×4.6 mm, 5 μm), mobile phase: 0.1% of formic acid-water-acetonitrile (5:35:60, v/v/v); flow rate: 1 mL/min; column temperature: 35-40° C., injection volume: 5 μL; split ratio: 1/5. Mass spectrometer conditions: scanning pattern: cation multiple reactions monitoring (MRM); ion source: electrospray ionization (ESI); Nebulize gas: 8 L/min; Curtain gas: 8 L/min; Collision gas: 4 L/min; Ionspray voltage: 4500 v; Temperature: 400° C./500° C. Preparation of the Standard Curve and Quality-Control Sample: a Suitable Amount of the drug to be tested was weighted precisely and then formulated into a stock solution (2.6 mg/mL) with ultrapure water. The stock solution was diluted with methanol to obtain a series of working solutions in a concentration of 25000, 5000, 2500, 500, 250 and 50 ng/mL respectively. 100 μL of plasma samples were respectively added into 20 μL of said working solutions to obtain the calibrated solutions in a concentration of […]. By the same method, the quality-controlled sample solutions in a concentration of 4000, 800 and 20 ng/mL can be prepared. A standard curve was obtained by chromatographic analysis of the sample. Methods for handling of sample: 20 μL of acetonitrile and 200 μL (200 ng/mL) Warfarin in acetonitrile were added into 100 μL of plasma sample, then spun for 1 minute and centrifuged for 5 minutes at 15000 rpm. 100 μL of the supernatant was taken, where 3 μL was used for the LC/MS/MS analysis. Results and Discussions: Concentration to be administered: The formulated drugs were determined using HPLC, and compared with the standard to obtain that the accuracy of the concentration of the drug solution administered by intravenous injection was 103.2%. Data analysis: The drug concentration in plasma would be considered as zero if under detectable limit (10 ng/mL). The pharmacokinetics parameters were calculated by the non-compartment model using Winnonlin Professional 5.2 pharmacokinetics software. Pharmacokinetics: The pharmacokinetics parameters and drug-time curve were obtained by measuring the plasma drug concentration at different time points. The half lives (t1/2) of the tested compounds were summarized in Table 3, wherein the half lives of the compounds of the present invention in rats (intravenous injection) were longer than those of Meropenem and Ertapenem.

[8] = SD male rats, intravenous injection 10 mg/kg, plasma, X ± SD

Row | Half lives t1/2 ([7]; rat, in vivo, iv, 10 mg/kg) [min] | Structure (SMILES) | MIC90 (klebsiella pneumonia) [µg/mL] | MIC90 [1] [µg/mL] | MIC90 [2] [µg/mL] | MIC90 [3] [µg/mL] | MIC90 [4] [µg/mL] | MIC90 [5] [µg/mL] | MIC90 [6] [µg/mL] | MIC90 (pseudomonas aeruginosa) [µg/mL] | MIC90 (proteus mirabilis) [µg/mL] | MIC90 (serratia marcescens) [µg/mL] | Half lives t1/2 [7, 8] [min]
1 |  | C[C@@H](O)[C@H]1C(=O)N2C(C(=O)O)=C(S[C@@H]3CN[C@H](C(=O)NCc4cc(C(=O)O)co4)C3)[C@H](C)[C@H]12 [Compound D, (4R,5S,6S)-3-[(2S,4S)-2-formyl[[furan-3-carboxy-5-ylmethyl]amino]-pyrrolidine-4-yl]-thio-6-[(1R)-1-hydroxyethyl]-4-methyl-7-oxo-1-aza-bicyclo[3.2.0]hept-2-ene-2-carboxylic acid] | 0.125 (≈ 0.261 µM) | 32 (≈ 66.7 µM) | 2 (≈ 4.17 µM) | 0.25 (≈ 0.521 µM) | 0.125 (≈ 0.261 µM) | 1 (≈ 2.09 µM) | 0.008 (≈ 0.0167 µM) | 64 (≈ 133 µM) | 0.063 (≈ 0.131 µM) | 0.063 (≈ 0.131 µM) | 19.8 ± 1.2
2 |  | C[C@@H](O)[C@H]1C(=O)N2C(C(=O)O)=C(S[C@@H]3CN[C@H](C(=O)NCc4ccc(C(=O)O)o4)C3)[C@H](C)[C@H]12 [Compound B, (4R,5S,6S)-3-[(2S,4S)-2-formyl[[furan-2-carboxy-5-ylmethyl]amino]-pyrrolidine-4-yl]thio-6-[(1R)-1-hydroxyethyl]-4-methyl-7-oxo-1-aza-bicyclo[3.2.0]hept-2-ene-2-carboxylic acid] | 0.5 (≈ 1.04 µM) | 64 (≈ 133 µM) | 2 (≈ 4.17 µM) | 0.25 (≈ 0.521 µM) | 0.25 (≈ 0.521 µM) | 1 (≈ 2.09 µM) | 0.008 (≈ 0.0167 µM) | 32 (≈ 66.7 µM) | 0.063 (≈ 0.131 µM) | 0.063 (≈ 0.131 µM) | 43.2 ± 1.8
3 |  | C[C@@H](O)[C@H]1C(=O)N2C(C(=O)O)=C(S[C@@H]3CN[C@H](C(=O)NCc4ccc(CC(=O)O)o4)C3)[C@H](C)[C@H]12 [Compound C, (4R,5S,6S)-3-[(2S,4S)-2-formyl[[furan-2-carboxymethyl-5-ylmethyl]amino]pyrrolidine-4-yl]thio-6-[(1R)-1-hydroxyethyl]-4-methyl-7-oxo-1-aza-bicyclo[3.2.0]hept-2-ene-2-carboxylic acid] | 0.5 (≈ 1.01 µM) | 64 (≈ 130 µM) | 1 (≈ 2.03 µM) | 0.25 (≈ 0.507 µM) | 0.25 (≈ 0.507 µM) | 0.5 (≈ 1.01 µM) | 0.016 (≈ 0.0324 µM) | 32 (≈ 64.8 µM) | 0.063 (≈ 0.128 µM) | 0.063 (≈ 0.128 µM) | 46.8 ± 1.8
4 |  | C[C@@H](O)[C@H]1C(=O)N2C(C(=O)O)=C(S[C@@H]3CN[C@H](C(=O)N(C)C)C3)[C@H](C)[C@H]12 [Meropenem, reference compound] | 0.5 (≈ 1.3 µM) | 64 (≈ 167 µM) | 2 (≈ 5.22 µM) | 0.25 (≈ 0.652 µM) | 0.125 (≈ 0.326 µM) | 1 (≈ 2.61 µM) | 0.008 (≈ 0.0209 µM) | 32 (≈ 83.4 µM) | 0.063 (≈ 0.164 µM) | 0.063 (≈ 0.164 µM) | 6.6 ± 1.2
5 |  | C[C@@H](O)[C@H]1C(=O)N2C(C(=O)O)=C(S[C@@H]3CN[C@H](C(=O)NCc4ccco4)C3)[C@H](C)[C@H]12 [Compound A, (4R,5S,6S)-3-[(2S,4S)-2-formyl[[furan-2-ylmethyl]amino]pyrrolidine-4-yl]thio-6-[(1R)-1-hydroxyethyl]-4-methyl-7-oxo-1-aza-bicyclo[3.2.0] hept-2-ene-2-carboxylic acid] | 0.125 (≈ 0.287 µM) | 32 (≈ 73.5 µM) | 1 (≈ 2.3 µM) | 0.125 (≈ 0.287 µM) | 0.125 (≈ 0.287 µM) | 0.5 (≈ 1.15 µM) | 0.008 (≈ 0.0184 µM) | 64 (≈ 147 µM) | 0.063 (≈ 0.145 µM) | 0.063 (≈ 0.145 µM) | 21 ± 2.4
6 |  | C[C@@H](O)[C@H]1C(=O)N2C(C(=O)O)=C(S[C@@H]3CN[C@H](C(=O)NCc4ccc(S(N)(=O)=O)o4)C3)[C@H](C)[C@H]12 [Compound E, (4R,5S,6S)-3-[(2S,4S)-2-formyl[[furan-2-sulphonylamino-5-ylmethyl]amino]-pyrrolidine-4-yl]thio-6-[(1R)-1-hydroxyethyl]-4-methyl-7-oxo-1-aza-bicyclo[3.2.0]hept-2-ene-2-carboxylic acid] | 0.5 (≈ 0.972 µM) | 64 (≈ 124 µM) | 2 (≈ 3.89 µM) | 0.25 (≈ 0.486 µM) | 0.125 (≈ 0.243 µM) | 2 (≈ 3.89 µM) | 0.008 (≈ 0.0155 µM) | 32 (≈ 62.2 µM) | 0.063 (≈ 0.122 µM) | 0.063 (≈ 0.122 µM) | 41.4 ± 2.4
7 | 36 ± 1.8 | C[C@@H](O)[C@H]1C(=O)N2C(C(=O)O)=C(S[C@@H]3CN[C@H](C(=O)Nc4cccc(C(=O)O)c4)C3)[C@H](C)[C@H]12 [Ertapenem, reference compound] | 1 (≈ 2.1 µM) | > 64 | 2 (≈ 4.21 µM) | 0.5 (≈ 1.05 µM) | 0.25 (≈ 0.526 µM) | 2 (≈ 4.21 µM) | 0.016 (≈ 0.0336 µM) | > 64 | 0.063 (≈ 0.132 µM) | 0.125 (≈ 0.263 µM) | 
